Assay results reported in EPA's ToxRefDB 2.

Tests used:
[1] = tested on: mouse; conditions: Subchronic oral toxicity in rodents, b6c3f1, Feed, dose end: 13 week, group: systemic
[2] = tested on: rat; conditions: Subchronic oral toxicity in rodents, fischer, Feed, dose end: 13 week, group: systemic, systemic / in life observation / body weight / body weight + systemic / in life observation / body weight / body weight gain + systemic / in…
[3] = tested on: rat; conditions: Fertility (Segment I), sprague dawley, Oral, Gavage/Intubation, dose end: 7 GD
[4] = tested on: rat; conditions: Fertility (Segment I), sprague dawley, Oral, Gavage/Intubation, dose end: 7 GD; remark: listed apart in the source
[5] = tested on: rat; conditions: Prenatal developmental toxicity study, sprague dawley, Oral, Gavage/Intubation, dose end: 17 GD
[6] = tested on: rat; conditions: Sub-acute repeat dose toxicity, sprague dawley, Oral, Gavage/Intubation, dose end: 4 week, group: systemic
[7] = tested on: rat; conditions: Prenatal developmental toxicity study, sprague dawley, Oral, Gavage/Intubation, dose end: 17 GD; remark: listed apart in the source
[8] = tested on: dog; conditions: Sub-acute repeat dose toxicity, beagle, Oral, Capsule, dose end: 1 month, group: systemic
[9] = tested on: rabbit; conditions: Prenatal developmental toxicity study, new zealand white, Oral, Gavage/Intubation, dose end: 19 GD
[10] = tested on: rat; conditions: Prenatal developmental toxicity study; sprague dawley; Oral; Gavage/Intubation; dose end: 17 GD; group: maternal; systemic / in life observation / body weight / body weight + systemic / in life observation / body weight / body weight gain + systemic / in…
[11] = tested on: rabbit; conditions: Prenatal developmental toxicity study; new zealand white; Oral; Gavage/Intubation; dose end: 19 GD; group: maternal; systemic / in life observation / body weight / body weight gain + systemic / in life observation / food consumption / food consumption
[12] = tested on: rat; conditions: Subchronic oral toxicity in rodents, sprague dawley, Feed, dose end: 13 week, group: systemic, systemic / in life observation / body weight / body weight + systemic / in life observation / body weight / body weight gain + systemic / …
[13] = tested on: dog; conditions: Subchronic oral toxicity in nonrodent, beagle, Capsule, dose end: 90 day, group: systemic
[14] = tested on: dog; conditions: Chronic toxicity; beagle; Oral; Capsule; dose end: 12 month; group: systemic; systemic / pathology microscopic / urinary bladder / calculus + systemic / pathology microscopic / urinary bladder / crystals + systemic / …
[15] = tested on: rat; conditions: Combined chronic toxicity/carcinogenicity; sprague dawley; Oral; Feed; dose end: 22 month; group: systemic; systemic / clinical chemistry / albumin / albumin + systemic / pathology microscopic / heart / mineralization + systemic / pathology …
[16] = tested on: mouse; conditions: Carcinogenicity; cd1; Oral; Feed; dose end: 18 month; group: systemic; systemic / pathology gross / urinary bladder / calculus + systemic / pathology microscopic / urinary bladder / hyperplasia + systemic / …
[17] = tested on: rat; conditions: Neurotoxicity screening battery, wistar, Oral, Feed, dose end: 90 day, group: cannot be grouped
[18] = tested on: rabbit; conditions: Prenatal developmental toxicity study, himalayan, Oral, Gavage/Intubation, dose end: 19 GD
[19] = tested on: rat; conditions: Combined chronic toxicity/carcinogenicity, sprague dawley, Oral, Feed, dose end: 115 week
[20] = tested on: dog; conditions: Chronic toxicity, beagle, Oral, Feed, dose end: 53 week
[21] = tested on: rabbit; conditions: Prenatal developmental toxicity study, himalayan, Oral, Gavage/Intubation, dose end: 18 GD
[22] = tested on: rat; conditions: Subchronic oral toxicity in rodents, sprague dawley, Feed, dose end: 13 week
[23] = systemic / organ weight / liver / relative to body weight + systemic / pathology microscopic / liver / pigmentation
[24] = group: maternal, reproductive / reproductive performance / estrous cycle / abnormal + reproductive / reproductive performance / estrous cycle / corpora lutea…
[25] = group: parental, systemic / in life observation / body weight / body weight + systemic / in life observation / body weight / body weight gain
[26] = group: parental, systemic / in life observation / body weight / body weight + systemic / in life observation / body weight / body weight gain + systemic / in…
[27] = group: maternal, reproductive / reproductive performance / estrous cycle / abnormal
[28] = group: parental, systemic / in life observation / body weight / body weight gain
[29] = group: parental, systemic / in life observation / body weight / body weight gain + systemic / in life observation / food consumption / food consumption
[30] = group: developmental, developmental / developmental malformation / trunk / absent genital tubercle + developmental / developmental malformation / trunk / anal …
[31] = group: maternal, systemic / in life observation / body weight / body weight + systemic / in life observation / body weight / body weight gain + systemic / in…
[32] = systemic / clinical chemistry / alanine aminotransferase (alt/sgpt) / alanine aminotransferase (alt/sgpt) + systemic / in life observation…
[33] = systemic / organ weight / salivary glands / absolute + systemic / pathology microscopic / vagina / diestrus
[34] = group: developmental, developmental / developmental malformation / bone / unossified + systemic / in life observation / body weight / fetal weight
[35] = systemic / in life observation / clinical signs / defecation (diarrhea)
[36] = systemic / in life observation / clinical signs / defecation (diarrhea) + systemic / clinical chemistry / alanine aminotransferase (alt/sgpt…
[37] = group: developmental, developmental / developmental malformation / bone / incomplete ossification + developmental / developmental malformation / bone / unossified…
[38] = group: maternal, systemic / in life observation / body weight / body weight gain + systemic / in life observation / food consumption / food consumption
[39] = group: maternal, systemic / in life observation / body weight / body weight gain + systemic / in life observation / food consumption / food consumption + …
[40] = systemic / pathology microscopic / urinary bladder / calculus + systemic / pathology microscopic / urinary bladder / hemorrhage + systemic…
[41] = group: developmental, developmental / developmental malformation / bone / cranioschisis + developmental / developmental malformation / bone / exencephaly + …
[42] = group: maternal, systemic / in life observation / clinical signs / swelling
[43] = group: cholinesterase, cholinesterase / cholinesterase / cholinesterase / plasma cholinesterase (che) + cholinesterase / cholinesterase / cholinesterase / brain (…
[44] = group: systemic, systemic / pathology microscopic / liver / eosinophilic focus
[45] = group: cholinesterase, cholinesterase / cholinesterase / cholinesterase / cholinesterase (che)
[46] = group: systemic, systemic / clinical chemistry / alkaline phosphatase (alp/alk) / alkaline phosphatase (alp/alk)
[47] = group: maternal, reproductive / reproductive performance / aborted / aborted + reproductive / reproductive performance / resorptions / resorptions + systemic…
[48] = group: cholinesterase, cholinesterase / cholinesterase / cholinesterase / erythrocyte cholinesterase (che)
[49] = group: systemic, systemic / organ weight / liver / relative to body weight + systemic / pathology microscopic / liver / necrosis

## Nc1c(Br)cc(Br)c2c1C(=O)c1ccccc1C2=O [1-Amino-2,4-dibromoanthraquinone]
[1]; [23]
  LEL: 500 mg/kg/day
  NEL: < 500 mg/kg/day
[1]; systemic / pathology microscopic / liver / hypertrophy
  LOAEL: 1850 mg/kg/day
[1]; systemic / pathology microscopic / liver / hypertrophy + systemic / in life observation / body weight / body weight gain + systemic / in …
  NOAEL: 1080 mg/kg/day
[2]
  LEL: 150 mg/kg/day
  LOAEL: 150 mg/kg/day
  NEL: < 150 mg/kg/day
  NOAEL: < 150 mg/kg/day

## CN(C)C(=O)NC1(c2ccccc2)CCN(CC[C@@]2(c3ccc(F)c(F)c3)CN(C(=O)c3ccccc3)CCO2)CC1.Cl
[3]; [24]
  LEL: 250 mg/kg/day
  LOAEL: > 250 mg/kg/day
  NEL: 70 mg/kg/day
  NOAEL: ≥ 250 mg/kg/day
[3]; [25]
  LEL: 70 mg/kg/day
  LOAEL: 70 mg/kg/day
[3]; [26]
  NEL: 20 mg/kg/day
  NOAEL: 20 mg/kg/day
[4]; [27]
  LEL: 20 mg/kg/day
  LOAEL: 100 mg/kg/day
  NEL: < 20 mg/kg/day
[4]; [24]
  NOAEL: 20 mg/kg/day
[4]; [28]
  LEL: 20 mg/kg/day
  NEL: < 20 mg/kg/day
[4]; [29]
  LOAEL: 100 mg/kg/day
  NOAEL: 20 mg/kg/day
[5]; [30]
  LEL: 500 mg/kg/day
  LOAEL: 500 mg/kg/day
  NEL: 100 mg/kg/day
  NOAEL: 100 mg/kg/day
[5]; [31]
  LOAEL: 500 mg/kg/day
  NEL: 20 mg/kg/day
  NOAEL: 100 mg/kg/day
[5]; group: maternal, systemic / in life observation / clinical signs / piloerection + systemic / pathology gross / kidney / reduced size
  LEL: 100 mg/kg/day
[6]; [32]
  LOAEL: 100 mg/kg/day
  NOAEL: 20 mg/kg/day
[6]; [33]
  LEL: 20 mg/kg/day
  NEL: < 20 mg/kg/day
[7]; [34]
  LEL: 250 mg/kg/day
  LOAEL: 250 mg/kg/day
  NEL: 70 mg/kg/day
  NOAEL: 70 mg/kg/day
[7]; [31]
  LEL: 250 mg/kg/day
  LOAEL: 250 mg/kg/day
  NEL: 70 mg/kg/day
  NOAEL: 70 mg/kg/day
[8]; [35]
  LEL: 20 mg/kg/day
  NEL: < 20 mg/kg/day
[8]; [36]
  LOAEL: > 180 mg/kg/day
  NOAEL: ≥ 180 mg/kg/day
[9]; [37]
  LEL: 200 mg/kg/day
  LOAEL: 200 mg/kg/day
  NEL: 60 mg/kg/day
  NOAEL: 60 mg/kg/day
[9]; [38]
  LEL: 60 mg/kg/day
  LOAEL: 60 mg/kg/day
[9]; [39]
  NEL: 20 mg/kg/day
  NOAEL: 20 mg/kg/day
[10]
  LEL: 250 mg/kg/day
  LOAEL: > 250 mg/kg/day
  NEL: < 250 mg/kg/day
  NOAEL: ≥ 250 mg/kg/day
[11]
  LEL: 100 mg/kg/day
  LOAEL: > 200 mg/kg/day
  NEL: 20 mg/kg/day
  NOAEL: ≥ 200 mg/kg/day

## CCS(=O)(=O)c1nc2ccccn2c1S(=O)(=O)NC(=O)Nc1nc(OC)cc(OC)n1 [Sulfosulfuron]
[12]
  LEL: 1280 mg/kg/day
  LOAEL: 1280 mg/kg/day
  NEL: 370 mg/kg/day
  NOAEL: 370 mg/kg/day
[13]; systemic / pathology microscopic / urinary bladder / calculus
  LEL: 100 mg/kg/day
[13]; [40]
  NEL: 30 mg/kg/day
  NOAEL: 100 mg/kg/day
[13]; systemic / urinalysis / sediment microscopic / crystalluria
  LOAEL: 300 mg/kg/day
[14]
  LEL: 500 mg/kg/day
  LOAEL: 500 mg/kg/day
  NEL: 100 mg/kg/day
  NOAEL: 100 mg/kg/day
[15]
  LEL: 244 mg/kg/day
  LOAEL: 244 mg/kg/day
  NEL: 24.4 mg/kg/day
  NOAEL: 24.4 mg/kg/day
[16]
  LEL: 394 mg/kg/day
  LOAEL: 394 mg/kg/day
  NEL: 93.4 mg/kg/day
  NOAEL: 93.4 mg/kg/day

## CC(Cc1ccc(C(C)(C)C)cc1)CN1C[C@@H](C)O[C@@H](C)C1 (stereo partly drawn) [(2R,6S)-Fenpropimorph]
[17]; cholinesterase / cholinesterase / cholinesterase / cholinesterase (che)
  LEL: 0.8 mg/kg/day
[17]; cholinesterase / cholinesterase / cholinesterase / cholinesterase (che) + systemic / clinical chemistry / alanine aminotransferase (alt/sgpt…
  NEL: 0.1 mg/kg/day
[17]; systemic / organ weight / liver / absolute + systemic / organ weight / liver / relative to body weight
  LOAEL: 7.1 mg/kg/day
[17]; systemic / organ weight / liver / absolute + systemic / organ weight / liver / relative to body weight + cholinesterase / cholinesterase / …
  NOAEL: 0.7 mg/kg/day
[18]; [41]
  LEL: 30 mg/kg/day
  LOAEL: 30 mg/kg/day
  NEL: 15 mg/kg/day
  NOAEL: 15 mg/kg/day
[18]; [42]
  LEL: 30 mg/kg/day
  LOAEL: 30 mg/kg/day
  NEL: 15 mg/kg/day
  NOAEL: 15 mg/kg/day
[19]; [43]
  LEL: 0.2 mg/kg/day
  LOAEL: > 8.8 mg/kg/day
  NEL: < 0.2 mg/kg/day
  NOAEL: ≥ 8.8 mg/kg/day
[19]; [44]
  LEL: 0.2 mg/kg/day
  NEL: < 0.2 mg/kg/day
[19]; group: systemic, systemic / pathology microscopic / liver / hypertrophy + systemic / organ weight / liver / relative to body weight
  NOAEL: 1.7 mg/kg/day
[19]; group: systemic, systemic / pathology microscopic / liver / hypertrophy + systemic / pathology microscopic / liver / eosinophilic focus + systemic / …
  LOAEL: 8.8 mg/kg/day
[20]; [45]
  LEL: 12.3 mg/kg/day
  LOAEL: 12.3 mg/kg/day
  NEL: 3.2 mg/kg/day
  NOAEL: 3.2 mg/kg/day
[20]; [46]
  LEL: 12.3 mg/kg/day
  LOAEL: 12.3 mg/kg/day
  NEL: 3.2 mg/kg/day
  NOAEL: 3.2 mg/kg/day
[21]; group: developmental, developmental / developmental malformation / general / [other]
  LOAEL: 36 mg/kg/day
[21]; group: developmental, developmental / developmental malformation / general / [other] + developmental / developmental malformation / bone / misshapen
  LEL: 36 mg/kg/day
[21]; [47]
  LEL: 36 mg/kg/day
  LOAEL: 36 mg/kg/day
[22]; [45]
  LOAEL: > 1.54 mg/kg/day
  NOAEL: ≥ 1.54 mg/kg/day
[22]; [48]
  LEL: 0.465 mg/kg/day
  NEL: < 0.465 mg/kg/day
[22]; [49]
  LEL: 0.768 mg/kg/day
  LOAEL: 1.54 mg/kg/day
  NEL: 0.382 mg/kg/day
  NOAEL: 0.768 mg/kg/day
